Results on 24 compounds are retold here after patent US9227935B2, “Piperidine/piperazine derivatives” (Janssen Pharmaceutica N.V., priority 2007, dated 2016).

What is called IC50 is the point on the concentration scale where inhibition reaches its midpoint. Read a low IC50 as higher potency.

The target in this experiment is T1, human DGAT1 (Homo sapiens, UniProt O75907).
T1 construct: FLAG (N); made in house; host or cells: SF9 insect cells (baculovirus, pFastBac); total cell membranes used as the enzyme source
T1 sequence (O75907 1-488): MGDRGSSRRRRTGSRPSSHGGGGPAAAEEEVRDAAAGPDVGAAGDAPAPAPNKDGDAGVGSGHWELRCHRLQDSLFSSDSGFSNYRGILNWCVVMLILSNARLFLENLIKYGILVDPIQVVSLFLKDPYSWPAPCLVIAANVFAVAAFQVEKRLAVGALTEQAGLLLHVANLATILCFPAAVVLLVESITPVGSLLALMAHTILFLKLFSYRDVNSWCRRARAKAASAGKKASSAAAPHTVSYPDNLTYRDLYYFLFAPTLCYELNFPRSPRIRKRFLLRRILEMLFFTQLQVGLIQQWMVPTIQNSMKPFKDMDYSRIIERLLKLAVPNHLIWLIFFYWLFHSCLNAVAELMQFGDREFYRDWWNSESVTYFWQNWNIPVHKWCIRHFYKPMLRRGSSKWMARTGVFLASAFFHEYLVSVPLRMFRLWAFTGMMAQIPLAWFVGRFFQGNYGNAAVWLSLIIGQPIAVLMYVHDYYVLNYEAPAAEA
The experiment in a line: DGAT1 FlashPlate inhibition assay with DGAT1 membrane preparations. Particulars: IC50 values expressed in M; pIC50 = -logIC50; inhibition of DGAT1 activity. The format is biochemical. The text has this:
The inhibiting activity of the present compounds on DGAT1 activity was screened in a single well procedure assay using DGAT1 comprising membrane preparations and DGAT1 substrate comprising micelles and determining formed radio-active triacylglycerol coming in close proximity of a flashplate surface by radioluminescence.
Said assay is described in full detail in WO2006/067071, the content of which is incorporated herein by reference.
By DGAT1 activity is meant the transfer of coenzyme A activated fatty acids to the 3-position of 1,2-diacylglycerols, thus forming a triglyceride molecule, by enzyme DGAT1.
human DGAT1 (NM012079.2) was cloned into the pFastBac vector, containing translation start, a FLAG-tag at the N-terminus as described in literature and a viral Kozak sequence (AAX) preceding the ATG to improve expression in insect cells. Expression was done as described in literature (Cases, S., Smith, S. J., Zheng, Y., Myers H. M., Lear, S. R., Sande, E., Novak, S., Collins, C., Welch, C. B., Lusis, A. J., Erickson, S. K. and Farese, R. V. (1998) Proc. Natl. Acad. Sci. USA 95, 13018-13023.) using SF9 cells.
72 h transfected SF9 cells were collected by centrifugation (13000 rpm-15 min-4° C.) and lysed in 2×500 ml lysis buffer (0.1M Sucrose, 50 mM KCl, 40 mM KH2PO4, 30 mM EDTA pH 7.2. Cells were homogenized by cell disruptor. After centrifugation 1380 rpm-15 min-4° C. (SN discarded), pellet was resuspended in 500 ml lysis buffer and total cell membranes collected by ultracentrifugation at 34000 rpm (100 000 g) for 60 min (4° C.). The collected membranes were resuspended in lysis buffer, divided in aliquots and stored with 10% glycerol at −80° C. until use.
Add 1 ml dioleoyl-sn-glycerol (10 mg/ml) to 10 ml of L-α-phosphatidylcholine (1 mg/ml) and 10 ml of L-α-phosphatidyl-L-serine (1 mg/ml) in a thick glass recipient. Evaporate under nitrogen and put on ice for 15 minutes. Reconstitute in 10 ml Tris/HCl (10 mM, pH 7.4) by sonication on ice. The sonification process consists of sonification cycles of 10 seconds in the sonification bath followed by 10 seconds cool down on ice and repeating this sonification cycle till a homogeneous solution is obtained (takes about 15 minutes). The thus obtained micelles are stored at −20° C. till later use and contain DAG at a final concentration of 1.61 mM.
• 50 mM Tris-HCl (pH 7.4), 150 mM MgCl2, 1 mM EDTA, 0.2% BSA. b) N-ethylmaleimide, 5M • Dissolve 5 g into a final volume of 8 ml DMSO 100% and store at −20° C. in aliquots till later use. c) Substrate mix (for 1 384 well plate=3840 μl) • 612 μl micelles stock (51 μM final) • 16.6 μl oleoylCoA 9.7 mM • 23 μl [^3H]-oleoylCoA (49 Ci/mmol, 500 μCi/ml) • 3188.4 μl Tris pH 7.4, 10 mM d) Enzyme mix (for 1 384 well plate=3520 μl) (5 μg/ml) • Add 11.73 μl of DGAT membrane stock (1500 μg/ml stock) to 3508 μl assay buffer. e) Stop mix (for 1 384 well plate=7.68 ml) (250 mM) • Add 384 μl of N-ethylmaleimide (5M) to 3.456 ml DMSO 100%, and further dilute 3.84 ml of said solution with 3.84 ml DMSO 10%. Method
DGAT activity in membrane preparations was assayed in 50 mM Tris-HCl (pH 7.4), 150 mM MgCl2, 1 mM EDTA and 0.2% BSA, containing 50 μM DAG, […] PC/PS and 8.4 μM [^3H]-oleoylCoA (at a specific activity of 30 nCi/well) in a final volume of 50 μl in 384-well format using the red shifted Basic Image FlashPlate™ (Perkin Elmer Cat. No. SMP400).
In detail, 10 μl enzyme mix and 10 μl substrate mix were added to 30 μl of assay buffer, optionally in the presence of 1 μl DMSO (blank and controls) or 1 μl of the compound to be tested. This reaction mixture was incubated for 120 minutes at 37° C. and the enzymatic reaction stopped by adding 20 μl of the stop mix. The plates were sealed and the vesicles allowed to settle overnight at room temperature. Plates were centrifuged for 5 minutes at 1500 rpm and measured in Leadseeker. […]

For `CC(C)(C)NC(=O)N1CCN(c2ccc(NC(=O)c3ccccc3-c3ccc(C(F)(F)F)cc3)cc2)CC1` [Compound 69], the midpoint of inhibition, the IC50, lay at 7940 nM.

The compound `CC(C)OC(=O)c1ccc(-c2cccc(C(=O)Nc3ccc(N4CCN(C(=O)Nc5c(Cl)cccc5Cl)CC4)cc3)c2)cc1` [Compound 127] gave an IC50 of 25.1 nM. Under `O=C(Nc1ccc(N2CCN(C(=S)Nc3ccc(Cl)cc3Cl)CC2)cc1)c1ccccc1-c1ccc(C(F)(F)F)cc1` [Compound 68] stands 7240 nM; under `Cc1nc(-c2cccc(C(=O)Nc3ccc(N4CCN(C(=O)Nc5c(Cl)cccc5Cl)CC4)cc3)c2)cs1` [Compound 17], 2.09 nM.

On to `O=C(Nc1ccc(N2CCN(C(=O)NCC3CCCCC3)CC2)cc1)c1ccccc1-c1ccc(C(F)(F)F)cc1` [Compound 5], for which the 50% inhibitory concentration (IC50) was 7590 nM. Under `CC(C)(C)OC(=O)N1CC(C(=O)Nc2ccc(C3CCN(C(=O)Nc4c(Cl)cccc4Cl)CC3)cc2)C1` [Compound 1] stands 8.13 nM; under `Cc1ccc([N+](=O)[O-])c(NC(=O)N2CCN(c3ccc(NC(=O)c4ccccc4-c4ccc(C(F)(F)F)cc4)cc3)CC2)c1C` [Compound 101], 525 nM.

Consider `O=C(Nc1ccc(N2CCN(C(=O)Nc3c(Cl)cccc3Cl)CC2)cc1)c1ccc(-n2cnnc2)cc1` [Compound 29], for which the IC50 was 776 nM. In turn, `O=C(Nc1ccc(N2CCN(C(=O)Nc3c(Cl)cccc3Cl)CC2)cc1)c1cccc(-c2ccco2)c1` [Compound 14] gave an IC50 of 0.977 nM. `Cc1cccc(Cl)c1NC(=O)N1CCN(c2ccc(NC(=O)c3ccccc3-c3ccc(C(F)(F)F)cc3)cc2)CC1` [Compound 94] gave a half-maximal inhibitory concentration (IC50) of 148 nM. Next, `COc1ccc(CNC(=O)N2CC=C(c3ccc(NC(=O)c4ccccc4-c4ccc(C(F)(F)F)cc4)cc3)CC2)cc1` [Compound 123]: 4170 nM; `O=C(Nc1ccc(N2CCN(C(=O)Nc3c(Cl)cc(Cl)cc3Cl)CC2)cc1)c1ccccc1-c1ccc(C(F)(F)F)cc1` [Compound 99]: 1820 nM. In turn, `O=C(Nc1ccc(N2CCN(C(=O)Nc3c(Cl)cccc3Cl)CC2)cc1)c1cccc(N2CCCCS2(=O)=O)c1` [Compound 41] gave an IC50 of 19.1 nM.

As to `Cc1cc(C)c(NC(=O)N2CCC(c3ccc(NC(=O)c4ccccc4-c4ccc(C(F)(F)F)cc4)cc3)CC2)c(Cl)c1` [Compound 117], the IC50 is 316 nM. Under `O=C(Nc1ccc(N2CCN(C(=O)Nc3ccccc3I)CC2)cc1)c1ccccc1-c1ccc(C(F)(F)F)cc1` [Compound 91] stands 1510 nM; under `O=C(Nc1ccc(N2CCN(C(=O)Nc3c(F)cc(F)cc3Br)CC2)cc1)c1ccccc1-c1ccc(C(F)(F)F)cc1` [Compound 96], 525 nM.

`O=C(Nc1ccc(C2CCN(C(=O)Nc3c(Cl)cccc3Cl)CC2)cc1)c1cccc2c1-c1ccccc1C2=O` [Compound 63] showed an IC50 of 120 nM. In turn, `CCc1nc(C)c(-c2ccccc2C(=O)Nc2ccc(N3CCN(C(=O)Nc4c(Cl)cccc4Cl)CC3)cc2)s1` [Compound 18] showed an IC50 of 40.7 nM. Against the preceding compound, the IC50 is about 2.9-fold lower. Under `CCC(C)c1ccccc1NC(=O)N1CCN(c2ccc(NC(=O)c3ccccc3-c3ccc(C(F)(F)F)cc3)cc2)CC1` (stereo not drawn) [Compound 79] stands 6460 nM. Next, `O=C(Nc1ccc(N2CCN(C(=O)Nc3ccccc3Br)CC2)cc1)c1ccccc1-c1ccc(C(F)(F)F)cc1` [Compound 88]: 1380 nM; `O=C(Nc1ccc(C2=CCN(C(=O)NCCCc3ccccc3)CC2)cc1)c1ccccc1-c1ccc(C(F)(F)F)cc1` [Compound 122]: 1510 nM.

`CC(C)(C)OC(=O)N1CSCC1C(=O)Nc1ccc(C2CCN(C(=O)Nc3c(Cl)cccc3Cl)CC2)cc1` (stereo not drawn) [Compound 50] gave an IC50 of 295 nM. As to `Cc1nc(C(=O)Nc2ccc(N3CCN(C(=O)Nc4c(Cl)cccc4Cl)CC3)cc2)c(-c2ccc(C(C)C)cc2)s1` [Compound 2], the IC50 is 112 nM. Under `O=C(Nc1ccc(C2=CCN(C(=O)NCC3CCCCC3)CC2)cc1)c1ccccc1-c1ccc(C(F)(F)F)cc1` [Compound 120] stands 4270 nM.
